Measurements as given in US11827628B2, “Compositions and methods for inhibition of the JAK pathway” (Rigel Pharmaceuticals, Inc., priority 2005, dated 2023).
Where a name gives a salt, the structure may show the parent alone.

What was measured:
[1] = test system: up-regulation of ICAM-1 (CD54) by IFNγ in A549 lung epithelial cells; experiment: A549 Epithelial Line Stimulated with IFNγ (ICAM-1 surface expression, FACS); format: cell-based, human; conditions: Homo sapiens, A549, A549 cells stimulated with IFNγ, ICAM-1 expression by FACS; read-out: IC50, Example 43
Source text: The activity of the compounds of the invention may additionally be characterized by assaying the effect of the 2,4-substituted pyrimidinediamine compounds described herein on A549 lung epithelial cells and U937 cells. A549 lung epithelial cells and U937 cells up-regulate ICAM-1 (CD54) surface expression in response to a variety of different stimuli. Therefore, using ICAM-1 expression as readout, test compound effects on different signaling pathways can be assessed in the same cell type. Stimulation with IL-1β through the IL-1β receptor activates the TRAF6/NFκB pathway resulting in up-regulation of ICAM-1. IFNγ induces ICAM-1 up-regulation through activation of the JAK1/JAK2 pathway. The up-regulation of ICAM-1 can be quantified by flow cytometry across a compound dose curve and EC50, values are calculated. An exemplary assays of this type are described in greater detail in Examples 43 and 44
A549 lung epithelial cells up-regulate ICAM-1 (CD54) surface expression in response to a variety of different stimuli. Therefore, using ICAM-1 expression as readout, compound effects on different signaling pathways can be assessed in the same cell type. IFNγ up-regulates ICAM-1 through activation of the JAK/Stat pathway. In this example, the up-regulation of ICAM-1 by IFNγ was assessed.
The A549 lung epithelial carcinoma cell line originated from the American Type Culture Collection. Routine culturing was with F12K media (Mediatech Inc., Lenexa, KS, Cat. No. 10-025-CV) with 10% fetal bovine serum, 100 I.U. penicillin and […] streptomycin (complete F12k media). Cells were incubated in a humidified atmosphere of 5% CO2 at 37° C. Prior to use in the assay, A549 cells were washed with PBS and trypsinized (Mediatech Inc., Cat. No. 25-052-CI) to lift the cells. The trypsin cell suspension was neutralized with complete F12K media and centrifuged to pellet the cells. The cell pellet was resuspended in complete F12K media at a concentration of 2.0×10^5/mL. Cells were seeded at 20,000 per well, 100 μL total volume, in a flat bottom tissue culture plate and allowed to adhere overnight.
On day two, A549 cells were pre-incubated with a 2,4-substituted pyrimidinediamine test compound or DMSO (control) (Sigma-Aldrich, St. Louis, MO, Catalog No. D2650) for 1 hour. The cells were then stimulated with IFNγ (75 ng/mL) (Peprotech Inc., Rocky Hill, NJ, Cat. No. 300-02) and allowed to incubate for 24 hours. The final test compound dose range was 30 μM to 14 nM in 200 μL F12K media containing 5% FBS, 0.3% DMSO.
On day three, the cell media was removed and the cells were washed with 200 μL PBS (phosphate buffered saline). Each well was trypsinized to dissociate the cells, then neutralized by addition of 200 μL complete F12K media. Cells were pelleted and stained with an APC conjugated mouse anti-human ICAM-1 (CD54) (BD Pharmingen, San Diego, CA, Catalog #559771) antibody for 20 minutes at 4° C. Cells were washed with ice cold FACS buffer (PBS+2% FBS) and surface ICAM-1 expression was analyzed by flow cytometry. Detection was performed using a BD LSR I System Flow Cytometer, purchased from BD Biosciences of San Jose, California Events were gated for live scatter and the geometric mean was calculated (Becton-Dickinson CellQuest software version 3.3, Franklin Lakes, NJ). Geometric means were plotted against the compound concentration to generate a dose response curve.

Primary human T-cells = experiment: Primary Human T-Cell Proliferation Assay Stimulated with IL-2 (CellTiter-Glo); format: cell-based; conditions: Homo sapiens, T-cell, primary human T-cells stimulated with IL-2, proliferation; read-out: IC50, Example 42
Summary of the method: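 Peripheral blood T-cells pre-activated with anti-CD3/anti-CD28 and IL-2 were washed free of IL-2, then cultured with compound plus IL-2 for 72 hours at 37° C, duplicate wells. Viability read as ATP by CellTiter-Glo luminescence; IC50 reported.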

Row | IC50 [1] [nM] | SMILES | IC50 (Primary human T-cells) [nM]
1 | 3380 | Cc1ccc(Nc2ncc(F)c(Nc3ccc4[nH]cc(CC#N)c4c3)n2)cc1S(N)(=O)=O [IX-14, N2-(3-Aminosulfonyl-4-methylphenyl)-N4-(3-cyanomethyl-1H-indol-5-yl)-5-fluoro-2,4-pyrimidinediamine] | 656
2 | 1700 | COc1ccc(Nc2nc(Nc3cccc(S(N)(=O)=O)c3)ncc2Br)cc1Cl [VI-26, N2-(3-aminosulfonylphenyl)-5-bromo-N4-(3-chloro-4-methoxyphenyl)-2,4-pyrimidinediamine] | 28.9
3 | 11300 | C#CCOc1ccc(Nc2nc(Nc3ccc(C)c(S(N)(=O)=O)c3)ncc2F)cc1 [VI-53, N2-(3-Aminosulfonyl-4-methylphenyl)-5-fluoro-N4-[4-(prop-2-ynyloxy)phenyl]-2,4-pyrimidinediamine] | 181
4 | 8230 | COc1ccc(Nc2nc(Nc3cc(Cl)c(C)c(S(N)(=O)=O)c3)ncc2F)cc1Cl [VI-13, N2-(3-Aminosulfonyl-5-chloro-4-methylphenyl)-N4-(3-chloro-4-methoxyphenyl)-5-fluoro-2,4-pyrimidinediamine] | 1350
5 | 5210 | Cc1ccc(Nc2ncc(F)c(Nc3ccc4c(c3)N(CC#N)C(=O)CO4)n2)cc1S(N)(=O)=O [Compound V-8, N2-(3-Aminosulphonyl-4-methylphenyl)-5-fluoro-N4-[3-oxo-4-cyanomethyl-benz[1,4]oxazin-6-yl]-2,4-pyrimidinediamine] | 225
6 | 5000 | N#CCN1C(=O)COc2ccc(Nc3nc(Nc4cccc(S(N)(=O)=O)c4)ncc3F)cc21 [Compound V-7, N2-(3-Aminosulphonylphenyl)-5-fluoro-N4-(3-oxo-4-cyanomethyl-benz[1,4]oxazin-6-yl]-2,4-pyrimidinediamine] | 127
7 | 31000 | C=Cc1ccc(Nc2nc(Nc3ccc(C)c(S(N)(=O)=O)c3)ncc2F)cc1 [VI-54, N2-(3-Aminosulfonyl-4-methylphenyl)-5-fluoro-N4-(4-vinylphenyl)-2,4-pyrimidinediamine] | 967
8 | 15000 | Cc1ccc(Nc2ncc(F)c(Nc3ccc(Cl)c(Cl)c3)n2)cc1S(N)(=O)=O [VI-6, N2-(3-Aminosulfonyl-4-methylphenyl)-N4-(3,4-dichlorophenyl)-5-fluoro-2,4-pyrimidinediamine] | 1450
9 | 10700 | Cc1ccc(Nc2ncc(F)c(Nc3ccc4sccc4c3)n2)cc1S(N)(=O)=O [VII-57, N2-(3-Aminosulfonyl-4-methylphenyl)-N4-(benzothiophen-5-yl)-5-fluoro-2,4-pyrimidinediamine] | 818
10 | 3850 | C#CCOc1ccc(Nc2nc(Nc3ccc(C)c(S(N)(=O)=O)c3)ncc2F)cc1F [VI-60, N2-(3-Aminosulfonyl-4-methylphenyl)-5-fluoro-N4-[3-fluoro-4-(prop-2-ynyloxy)phenyl]-2,4-pyrimidinediamine] | 187
11 | 10500 | COc1ccc(Nc2nc(Nc3ccc(C(C)C)c(S(N)(=O)=O)c3)ncc2F)cc1Cl [VI-45, N2-(3-Aminosulfonyl-4-iso-propylphenyl)-N4-(3-chloro-4-methoxy-phenyl)-5-fluoro-2,4-pyrimidinediamine] | 1330
12 | 23400 | COc1ccc(Nc2nc(Nc3cccc(S(N)(=O)=O)c3)ncc2F)cn1 [VII-6, N2-(3-Aminosulfonylphenyl)-5-fluoro-N4-(2-methoxypyrid-5-yl)-2,4-pyrimidinediamine] | 2000
13 | 4880 | C#CCn1ccc2cc(Nc3nc(Nc4ccc(C)c(S(N)(=O)=O)c4)ncc3F)ccc21 [IX-1, N2-(3-Aminosulfonyl-4-methylphenyl)-5-fluoro-N4-[1-(propyn-3-yl)indol-5-yl]-2,4-pyrimidinediamine] | 581
14 | 6480 | NS(=O)(=O)c1cccc(Nc2ncc(F)c(Nc3ccc4ncccc4c3)n2)c1 [VII-70, N2-(3-Aminosulfonylphenyl)-5-fluoro-N4-(quinolin-6-yl)-2,4-pyrimidinediamine] | 375
15 | 24700 | NS(=O)(=O)c1ccc(Nc2ncc(F)c(Nc3ccc(CCCCO)cc3)n2)cc1 [VI-88, N2-(4-Aminosulfonylphenyl)-5-fluoro-N4-[4-(4-hydroxybutyl)phenyl]-2,4-pyrimidinediamine] | 1190
16 | 47100 | COc1cc(Nc2nc(Nc3ccc(Cl)c(S(N)(=O)=O)c3)ncc2F)ccc1Cl [VI-11, N2-(3-Aminosulfonyl-4-chlorophenyl)-N4-(4-chloro-3-methoxyphenyl)-5-fluoro-2,4-pyrimidinediamine] | 4620
17 | 5470 | Cc1ccc2cc(Nc3nc(Nc4ccc(C)c(S(N)(=O)=O)c4)ncc3F)ccc2n1 [VII-71, N2-(3-Aminosulfonyl-4-methylphenyl)-5-fluoro-N4-(2-methylquinolin-6-yl)-2,4-pyrimidinediamine] | 569
18 | 16100 | NS(=O)(=O)c1cccc(Nc2ncc(F)c(Nc3ccc(-c4cnco4)cc3)n2)c1 [IV-5, N2-(3-Aminosulfonylphenyl)-5-fluoro-N4-[4-(1,3-oxazol-5-yl)phenyl]-2,4-pyrimidinediamine] | 116
19 | 8920 | Cc1ccc(Nc2ncc(C)c(Nc3ccc4c(c3)NC(=O)CO4)n2)cc1S(N)(=O)=O [VII-30, N2-(3-Aminosulphonyl-4-methylphenyl)-5-methyl-N4-(3-oxo-benz[1,4]oxazin-6-yl)-2,4-pyrimidinediamine] | 26.8
20 | 7500 | Cc1ccc(Nc2ncc(F)c(Nc3ccc4ncccc4c3)n2)cc1S(N)(=O)=O [VII-69, N2-(3-Aminosulfonyl-4-methylphenyl)-5-fluoro-N4-(quinolin-6-yl)-2,4-pyrimidinediamine] | 696
21 | 7300 | NS(=O)(=O)c1cccc(Nc2ncc(F)c(Nc3ccc(CCCF)cc3)n2)c1 [VI-83, N2-(3-Aminosulfonylphenyl)-5-fluoro-N4-[4-(3-fluoropropyl)phenyl]-2,4-pyrimidinediamine] | 293
22 | 13000 | NS(=O)(=O)c1cccc(Nc2ncc(F)c(Nc3ccc(CCCCF)cc3)n2)c1 [VI-92, N2-(3-Aminosulfonylphenyl)-5-fluoro-N4-[4-(4-fluorobutyl)phenyl]-2,4-pyrimidinediamine] | 107
23 | 4980 | C#CCOc1ccc(Nc2nc(Nc3ccc(C)c(S(N)(=O)=O)c3)ncc2F)cc1Cl [VI-59, N2-(3-Aminosulfonyl-4-methylphenyl)-N4-[3-chloro-4-(prop-2-ynyloxy)phenyl]-5-fluoro-2,4-pyrimidinediamine] | 340
24 | 28100 | NS(=O)(=O)c1cccc(Nc2ncc(F)c(Nc3ccc(Cc4ccncc4)cc3)n2)c1 [III-128, N2-(3-Aminosulfonylphenyl)-5-fluoro-N4-[4-(4-pyridylmethyl)phenyl]-2,4-pyrimidinediamine p-Toluenesulfonic Acid Salt] | 139
25 | 5460 | Cc1ccc(Nc2ncc(F)c(Nc3ccc4oc(C#N)cc4c3)n2)cc1S(N)(=O)=O [VII-53, N2-(3-Aminosulfonyl-4-methylphenyl)-N4-(2-cyanobenzofuran-5-yl)-5-fluoro-2,4-pyrimidinediamine] | 484
26 | 5760 | NS(=O)(=O)c1cccc(Nc2ncc(F)c(Nc3ccc(CCCCO)cc3)n2)c1 [VI-89, N2-(3-Aminosulfonylphenyl)-5-fluoro-N4-[4-(4-hydroxybutyl)phenyl]-2,4-pyrimidinediamine] | 171
